Patent publication US20260199479A1, “DRUG LINKER AND LINKER-CONJUGATED COMPOUND” (Anti-Microbial Savior BioteQ Co., Ltd., priority 2022, published 2026)
Converted amounts (≈) assume the structure as drawn.

Columns and labels:
[1] = Water solubility test (HPLC); format: physicochemical; conditions: double distilled water, thermodynamic from solid
Description: 5 mg of the standard test compound was weighed and dissolved in 5 mL of IPA as a stock solution (1 mg/mL). Double distilled water was then diluted to prepare 1000, 100, 50, 25, 12.5, 10, 5, 2.5, 1.25, 1, 0.5, 0.25, 0.125 μg/mL standard solution calibration lines. 60 μL of each concentration standard solution was used for HPLC analysis. Peak areas were integrated to establish a calibration line, and the accuracy of the analysis method was evaluated through the correlation coefficient (R-squared).
1 mL of double distilled water was weighed into a microcentrifuge tube and the test compound was dissolved. Undissolved compounds were ensured to be still present by vortexing for 5 min and sonicating for 20 min. After centrifugation, the supernatant was filtered through a 0.22 μm PTEF membrane. The […] was analyzed by HPLC and the water solubility was calculated from the peak area.

Vero E6 cells = test: Cytotoxicity screening, PrestoBlue cell viability; format: cell-based, cercopithecus aethiops; conditions: Vero E6, normal kidney cells
Description: (§1) Vero E6 cells, cercopithecus aethiops renal epithelial cells, were obtained from the American Type Culture Collection (ATCC, USA). Cells were cultured in Dulbecco's Modified Eagle Medium (DMEM) (Gibco, USA) containing 10% FBS (Gibco, USA), 100 U/mL penicillin, and 100 μg/mL streptomycin (Gibco, USA). Cell viability was assessed with PrestoBlue assay (Invitrogen, USA). Cells were seeded into 96-well plates and cultured with test compounds according to the manufacturer's protocol. After 48 hours of exposure to test compounds, the culture medium was discarded and rinsed with PBS. Then, add 10 μL PrestoBlue reagent containing 90 μL culture medium to the cells and incubate the cell plate at 37° C. in the dark for 120 min. Absorbance was measured at the experimental wavelength of 570 nm and the normalized wavelength of 600 nm in a SpectraMax iD3 microplate reader. […] Cell viability was expressed as a percentage relative to the control, and calculated using the following formula: cell viability (%)=[(Absorbance of test wells at 570 nm−Absorbance of only culture medium wells at 570 nm−Absorbance of test wells at 600 nm+Absorbance of only culture medium wells at 600 nm)/Absorbance of the control well at 570 nm−Absorbance of only culture medium wells at 570 nm-Absorbance of the control well at 600 nm+Absorbance nm of only culture medium wells at 600 nm)]×100.

BxPC-3 = test: Cytotoxicity screening, PrestoBlue cell viability; format: cell-based, human; conditions: BxPC-3, pancreatic cancer cells
Description: (§2) BxPC-3, human pancreatic adenocarcinoma cells, were obtained from the Bioresource Collection and Research Center (BCRC, Taiwan, China). Cells were cultured in RPMI 1640 culture medium (Gibco, USA) containing 10% FBS (Gibco, USA) and 1% antibiotics (1×penicillin, streptomycin and glutamic acid) (Gibco, USA).
as §1, with “Cell” for “Vero E6 cells, cercopithecus aethiops renal epithelial cells, were obtained from the American Type Culture Collection (ATCC, USA). Cells were cultured in Dulbecco's Modified Eagle Medium (DMEM) (Gibco, USA) containing 10% FBS (Gibco, USA), 100 U/mL penicillin, and 100 μg/mL streptomycin (Gibco, USA). Cell”

AsPC-1 = test: Cytotoxicity screening, PrestoBlue cell viability; format: cell-based, human; conditions: AsPC-1, pancreatic cancer cells
Description: as §2, with “AsPC-1,” for “BxPC-3,”, “adenocarcinoma ascites metastatic” for “adenocarcinoma”
as §1, with “Cell” for “Vero E6 cells, cercopithecus aethiops renal epithelial cells, were obtained from the American Type Culture Collection (ATCC, USA). Cells were cultured in Dulbecco's Modified Eagle Medium (DMEM) (Gibco, USA) containing 10% FBS (Gibco, USA), 100 U/mL penicillin, and 100 μg/mL streptomycin (Gibco, USA). Cell”

NOZ cells = test: Cytotoxicity screening, PrestoBlue cell viability; format: cell-based, human; conditions: gallbladder cancer cells
Description: (§3) NOZ cells, human gallbladder cancer cells, were obtained from the Japanese Collection of Research Bioresources Cell Bank (JCRB, Japan). Cells were cultured in 90% William's E culture medium (Gibco, USA), 10% fetal bovine serum (FBS) (Gibco, USA), and 1% antibiotics (1×penicillin, streptomycin and glutamine) (Gibco, USA).
as §1, with “Cell” for “Vero E6 cells, cercopithecus aethiops renal epithelial cells, were obtained from the American Type Culture Collection (ATCC, USA). Cells were cultured in Dulbecco's Modified Eagle Medium (DMEM) (Gibco, USA) containing 10% FBS (Gibco, USA), 100 U/mL penicillin, and 100 μg/mL streptomycin (Gibco, USA). Cell”

MCF-7 = test: Cytotoxicity screening, PrestoBlue cell viability; format: cell-based, human; conditions: MCF-7, breast cancer cells
Description: MCF7, human breast cancer, was obtained from the Bioresource Collection and Research Center (BCRC, Taiwan, China). Cells were cultured in minimal essential Eagle's culture medium (FBS) (Gibco, USA) containing 2 mM L-glutamic acid, 1.5 mg/mL sodium bicarbonate, 0.1 mM non-essential amino acids, 1.0 mM sodium pyruvate (Gibco, USA), 10% fetal bovine serum (Gibco, USA) and 1% antibiotics (1×penicillin, streptomycin and glutamic acid) (Gibco, USA).
as §1, with “Cell” for “Vero E6 cells, cercopithecus aethiops renal epithelial cells, were obtained from the American Type Culture Collection (ATCC, USA). Cells were cultured in Dulbecco's Modified Eagle Medium (DMEM) (Gibco, USA) containing 10% FBS (Gibco, USA), 100 U/mL penicillin, and 100 μg/mL streptomycin (Gibco, USA). Cell”, “Then, add 10 μL PrestoBlue reagent containing 90 μL culture medium to the cells and incubate the cell plate at 37° C. in the dark for 120 min.” left out

HCT-15 = test: Cytotoxicity screening, PrestoBlue cell viability; format: cell-based; conditions: HCT-15, colon cancer cells
Description: as §2, with “HCT-15, colorectal adenocarcinoma, was” for “BxPC-3, human pancreatic adenocarcinoma cells, were”, “fetal bovine serum (FBS)” for “FBS”
as §1, with “Cell” for “Vero E6 cells, cercopithecus aethiops renal epithelial cells, were obtained from the American Type Culture Collection (ATCC, USA). Cells were cultured in Dulbecco's Modified Eagle Medium (DMEM) (Gibco, USA) containing 10% FBS (Gibco, USA), 100 U/mL penicillin, and 100 μg/mL streptomycin (Gibco, USA). Cell”

[2] = test system: normal cells or cancer cells; test: Cytotoxicity tests in various cell lines (summary); format: cell-based; conditions: normal cells and cancer cells, various cell lines (Table 3)
Description: (§4) Cell viability was assessed with PrestoBlue assay (Invitrogen, USA). Cells were seeded into 96-well plates and cultured with test compounds according to the manufacturer's protocol. After 48 hours of exposure to test compounds, the culture medium was discarded and rinsed with PBS. Then, add 10 μL PrestoBlue reagent containing 90 μL culture medium to the cells and incubate the cell plate at 37° C. in the dark for 120 min. Absorbance was measured at the experimental wavelength of 570 nm and the normalized wavelength of 600 nm in a SpectraMax iD3 microplate reader. The result was corrected by subtracting the blank value. Cell viability was expressed as a percentage relative to the control, and calculated using the following formula: cell viability (%)=[(Absorbance of test wells at 570 nm−Absorbance of only culture medium wells at 570 nm−Absorbance of test wells at 600 nm+Absorbance of only culture medium wells at 600 nm)/Absorbance of the control well at 570 nm−Absorbance of only culture medium wells at 570 nm-Absorbance of the control well at 600 nm+Absorbance nm of only culture medium wells at 600 nm)]×100.
Taking the linker of the present invention (n=2; X, Y, Z=O; R^1, R^2, R^4=H; R^3=CH3) as an example, the linker has significant advantages in terms of synthetic elastic properties. […]

PANC-1 = test: Cytotoxicity screening, PrestoBlue cell viability; format: cell-based, human; conditions: PANC-1, pancreatic cancer cells
Description: PANC-1, human pancreatic epithelioid carcinoma, was obtained from the American Type Culture Collection (ATCC, USA). Cells were cultured in DMEM culture medium (Gibco, USA) containing 10% FBS (Gibco, USA) and 1% antibiotics (1×penicillin, streptomycin and glutamic acid) (Gibco, USA).
as §4

HuH28 cells = test: Cytotoxicity screening, PrestoBlue cell viability; format: cell-based, human; conditions: HuH28, 20 μg/mL
Description: as §3, with “HuH28” for “NOZ”, “liver, and cholangiocarcinoma” for “gallbladder cancer”, “RPMI 1640” for “William's E”
as §4, with “The result was corrected by subtracting the blank value.” left out

A549 = test: Cytotoxicity screening, PrestoBlue cell viability; format: cell-based, human; conditions: A549, lung cancer cells
Description: as §2, with “A549,” for “BxPC-3,”, “non-small cell lung cancer” for “pancreatic adenocarcinoma”, “F12K” for “RPMI 1640”
as §4, with “The result was corrected by subtracting the blank value.” left out

HuCCT1 cells = test: Cytotoxicity screening, PrestoBlue cell viability; format: cell-based, human; conditions: HuCCT1, 20 μg/mL
Description: HuCCT1 cells, human cholangiocarcinoma cells, were obtained from iCell Bioscience Inc. (iCell, China). Cells were cultured in 90% RPMI 1640 culture medium (Gibco, USA), 10% fetal bovine serum (FBS) (Gibco, USA), and 1% antibiotics (1×penicillin, streptomycin and glutamine) (Gibco, USA).
as §4, with “The result was corrected by subtracting the blank value.” left out

Caco-2 = test: Cytotoxicity screening, PrestoBlue cell viability; format: cell-based; conditions: Caco-2, colon cancer cells
Description: Caco-2, colorectal adenocarcinoma, was obtained from the Bioresource Collection and Research Center ([…]). Cells were cultured in minimal essential Eagle's culture medium (FBS) (Gibco, USA) containing 2 mM L-glutamic acid, 1.5 mg/mL sodium bicarbonate, 0.1 mM non-essential amino acids, 1.0 mM sodium pyruvate (Gibco, USA), 20% fetal bovine serum (Gibco, USA), and 1% antibiotics (1×penicillin, streptomycin and glutamic acid) (Gibco, USA).
as §4, with “Then, add 10 μL PrestoBlue reagent containing 90 μL culture medium to the cells and incubate the cell plate at 37° C. in the dark for 120 min.” left out, “The result was corrected by subtracting the blank value.” left out

AML12 cells = test: Cytotoxicity screening, PrestoBlue cell viability; format: cell-based, mouse; conditions: AML12, normal hepatocytes
Description: AML12 cells, alpha mouse liver 12, were obtained from the American Type Culture Collection (ATCC, USA). Cells were cultured in DMEM: F12 culture medium (Gibco, USA), 10% fetal bovine serum (FBS) (Gibco, USA), 10 μg/mL insulin, 5.5 μg/mL transferrin, 5 ng/ml selenium, 40 ng/ml dexamethasone (Gibco, USA), and 1% antibiotics (1×penicillin, streptomycin and glutamic acid) (Gibco, USA).
as §4, with “Then, add 10 μL PrestoBlue reagent containing 90 μL culture medium to the cells and incubate the cell plate at 37° C. in the dark for 120 min.” left out, “The result was corrected by subtracting the blank value.” left out

Row | solubility [1] [µg/mL] | SMILES | 20 μg/mL 48-hour survival rate (Vero E6 cells) [%] | 20 μg/mL 48-hour survival rate (BxPC-3) [%] | 20 μg/mL 48-hour survival rate (AsPC-1) [%] | 20 μg/mL 48-hour survival rate (NOZ cells) [%] | 20 μg/mL 48-hour survival rate (MCF-7) [%] | 20 μg/mL 48-hour survival rate (HCT-15) [%] | cytotoxicity [2] | 20 μg/mL 48-hour survival rate (PANC-1) [%] | 20 μg/mL 48-hour survival rate (HuH28 cells) [%] | 20 μg/mL 48-hour survival rate (A549) [%] | 20 μg/mL 48-hour survival rate (HuCCT1 cells) [%] | 20 μg/mL 48-hour survival rate (Caco-2) [%] | 20 μg/mL 48-hour survival rate (AML12 cells) [%]
1 | 87.4 (≈ 393 µM) | CC(C)=CCC/C(C)=C/CC/C(C)=C/CO [Farnesol, reference compound] | – | – | – | – | – | – | – | – | – | – | – | – | –
2 | 780 (≈ 2890 µM) | C/C(=C\CO)CC/C=C(\C)CCC(O)C(C)C(=O)O (stereo not drawn) [Linker of the present invention, (6E,10E)-3,12-dihydroxy-2,6,10-trimethyldodec-6,10-dienoic acid] | 96.28 ± 3.66 | 91.33 ± 5.93 | 93.02 ± 5.01 | 107.26 ± 14.11 | 89.45 ± 8.95 | 88.96 ± 15.45 | not cytotoxic | 106.67 ± 8.24 | 87.92 ± 5.14 | 82.28 ± 5.53 | 110.04 ± 0.17 | 99.94 ± 3.16 | 91.99 ± 2.6
